Patent US20090023762A1, “Substituted 2-Aminopyrimidine-4-Ones, Their Pharmaceutical Compositions And Their Use In The Treatment And/Or Prevention Of Ab-Related Pathologies” (ASTRAZENECA AB, priority 2005, published 2009)

Molecular target: T1, human β-Secretase (Homo sapiens, UniProt P56817)
T1 construct: The soluble part of the human β-Secretase (AA 1-AA 460) was cloned; Fc domain of IgG1 (C); made in house
Experiment: TR-FRET assay
Type: biochemical
Conditions: substrate (Europium)CEVNLDAEFK(Qsy7) 100 nM, enzyme 0.3 nM, pH 4.5
Experimental: The enzyme used in the IGEN Cleavage-, Fluorescent-, TR-FRET- and the BiaCore assay is described as follows:
The soluble part of the human β-Secretase (AA 1-AA 460) was cloned into the ASP2-Fc10-1-IRES-GFP-neoK mammalian expression vector. The gene was fused to the Fc domain of IgG1 (affinity tag) and stably cloned into HEK 293 cells. Purified sBACE-Fc is stored in Tris buffer, pH 9.2 and has a purity of 95%.
Dilute the enzyme (truncated form) to 6 μg/mL (stock 1.3 mg/mL) and the substrate (Europium)CEVNLDAEFK (Qsy7) to 200 nM (stock 60 μM) in reaction buffer (NaAcetate, chaps, triton x-100, EDTA pH4.5). The Biomek FX is used for all liquid handling and the enzyme and substrate solutions are kept on ice until they are placed in Biomek FX. Enzyme (9 μl) is added to the plate then […] in dimethylsulphoxide is added, mixed and pre-incubated for 10 minutes. Substrate (10 μl) is then added, mixed and the reaction proceeds in the dark for 15 minutes at room temperature. The reaction is stopped with the addition of Stop solution (7 μl, NaAcetate pH 9). The fluorescence of the product is measured on a Victor II plate reader with an excitation wavelength of 340 nm and an emission wavelength of 615 nm. The assay is done in a Costar 384 well round bottom, low volume, non-binding surface (Corning #3676). […]

T1 sequence (P56817 22-460): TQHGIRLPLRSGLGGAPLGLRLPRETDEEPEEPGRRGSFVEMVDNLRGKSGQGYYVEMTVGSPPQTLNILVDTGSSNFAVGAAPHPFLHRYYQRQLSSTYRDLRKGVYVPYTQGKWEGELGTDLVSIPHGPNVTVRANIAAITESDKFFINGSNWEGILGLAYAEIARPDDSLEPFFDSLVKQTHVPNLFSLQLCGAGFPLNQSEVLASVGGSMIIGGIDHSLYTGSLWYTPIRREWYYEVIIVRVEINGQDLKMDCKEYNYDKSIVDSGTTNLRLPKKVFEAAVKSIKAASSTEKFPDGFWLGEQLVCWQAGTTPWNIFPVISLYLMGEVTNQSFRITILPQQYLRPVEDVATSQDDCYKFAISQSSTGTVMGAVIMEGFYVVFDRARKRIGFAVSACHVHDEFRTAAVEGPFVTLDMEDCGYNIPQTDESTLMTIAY

IC50: 703 nM
SMILES: COc1cc(OS(C)(=O)=O)cc(-c2cccc(C3(C)CC(=O)N(C)C(N)=N3)c2)c1 (stereo not shown) [Example 9, 3′-(2-Amino-1,4-dimethyl-6-oxo-1,4,5,6-tetrahydropyrimidin-4-yl)-5-methoxybiphenyl-3-yl methanesulfonate]
